Columns and labels:
S. marcescens = assay: Protective effect in experimentally-infected immunosuppressed mice (S. marcescens); type: in vivo; details: for % Mortality, S. marcescens: cyclophosphamide-immunodepressed CD1 mice, 25 mg/kg/d i.p. day -5 through day -1, challenge day 0
Description: (§1) Evaluation of the protective effects of ST 689 and ST 789 in experimentally-infected immunosuppressed mice.
(§2) Male CDl mice (Charles River, Italy), 6-10 weeks old, were used in experimental groups of 9-20 animals. Systemic infection in the mice was achieved by intrapcritoncal inoculation of a pathogenic species of Klebsiclla (K. oxytoca), Proteus (P. mirabilis), Serratia (S. marcescens),and Hscherichia (E. coli). Eighteen-hour broth cultures were used to prepare infectious inocula that were either sublethal (Proteus) or which corresponded to an LD30 (Serratia) and an LD10 (Escherichia, Klebsiella). The bacterial challenge, inoculated i.p. in 0.5 mL of 5% gastric mucin, was designed to cause the death of animals immunodepressed with cyclophosphamide (administered i.p. in 0.2 mL of sterile physiological solution at a dosage of 100 mg/kg) 5 days prior to infection. The compounds were administered i.p. at daily doses of 25 mg/kg from day -5 to day -1 with respect to the day of bacterial inoculation (day 0). The results are expressed as % mortality and were statistically analysed using Fisher's test (Biostatistics in Pharmacology, vol. 2, Pergamon Press).

IL-2 = assay: In vitro-ex vivo production of IL-2 by rat splenocytes (CTLL-2 bioassay); details: for IL-2 in supernates from rat splenocytes: ConA-stimulated splenocytes, 48 h, 25 mg/kg daily i.p. day -5 through day -1
Procedure: In vitro-ex vivo effect of ST 689 and ST 789 on the production of IL-2 by rat splenocytes.
Male Fisher rats (Charles River, Italy), 3 months old, in experimental groups of 5 animals, were treated with the substances at daily dosages of 25 mg/kg from day -5 through day -1 relative to the day the spleens were sampled (day 0). The experimental procedure employed was that reported in [1]. To suspensions of splenocytes, prepared in RPMI 1640 with 10% FCS+1×10^-5 M β-mercaptoethanol and standardised to a concentration of 1×10^7 cells/mL, were added equal volumes of ConA at a concentration of 18 μg/mL/well. After incubating for 48 h at 37° C. in the presence of 5% CO2 the samples were centrifuged and the supernates collected. Serial dilutions of the supernates were added to CTLL-2 cells (a line of T-cells requiring IL-2 for growth) standardised at 5×10^4 cells/mL. Following an overnight incubation, the samples were labelled with ^3 H--TdR (0.5 μCi/well)for 6 h, then the cells were collected on filters using a cell harvester, and counted (cpm) using a β-counter. The results are expressed in units of IL-2, comparing the counts in the samples to a standard curve prepared with purified IL-2 . . . ls1.

[1] = tested on: mouse peritoneal exudate cells (PECs); assay: In vitro-ex vivo phagocytic activity of mouse peritoneal exudate cells (PECs); details: for % Phagocytic cells: % of cells that had phagocytosed relative to potential phagocytes in PECs; for % Phagocytic cells / SRBC phagocytosed / SRBC per phagocyte: 25 mg/kg daily i.p. day -5 through day -1; for SRBC phagocytosed: average number of SRBC phagocytosed by 100 potential phagocytes; for SRBC per phagocyte: average number of SRBC phagocytosed per phagocyte
Procedure: In vitro-ex vivo effects of ST 689 and ST 789 on phagocytic activity of mouse peritoneal exudate cells (PECs).
Male B6 D2 F1 mice (Charles River, Italy), 6 weeks old, in experimental groups of 5 animals, were treated with the above substances i.p. at daily doses of 25 mg/kg from day -5 through day -1 relative to the day the PECs were sampled (day 0). The experimental procedure followed those described in [1] and [2]; briefly, the animals in each group were asphyxiated with CO2, the peritoneal cavities repeatedly washed, and the PECs recovered from each experimental group pooled and standardised to 4×10^6 cells/mL. Aliquots (250 μL) of phagocyte suspension were added to equal volumes of 0.4% SRBC that had been appropriately opsonised with hyperimmune serum. The samples, prepared in duplicate, were incubated for 1 h and then osmotically shocked to eliminate non-phagocytosed erythrocytes. After adjusting the osmolarity to normal values, the phagocytes were centrifuged and differentially stained. Microscopic counts of cells with phagocytic capabilities and of phagocytosed SRBC in fields of 200 cells were performed in triplicate. The results are expressed as % phagocytic cells, the average number of SRBC phagocytosed per phagocyte, and the total number of SRBC phagocytosed per 100 phagocytes.

rat blood granulocytes = assay: In vitro-ex vivo chemotactic activity of rat blood granulocytes (modified Boyden chamber); details: for Chemotaxis (μm ± S.E.) induced: casein-induced migration; for Chemotaxis (μm ± S.E.) induced / Chemotaxis (μm ± S.E.) spontaneous: 25 mg/kg/d i.p. day -5 through day -1; for Chemotaxis (μm ± S.E.) spontaneous: spontaneous migration (Hank's medium)
Procedure: In vitro-ex vivo effects of ST 689 and ST 789 on the chemotactic activity of rat blood granulocytes.
(§3) Inbred male Fisher 344 rats (Charles River, Italy), ca. 6 months old, were used in experimental groups of 5 animals. Test animals received the compounds at dosage of 25 mg/kg daily from day -5 through day -1 relative to the day of blood sampling (day 0). The experimental procedure employed is described in Cates, L. K. et al., Modified Boyden chamber method of measuring polymorphonuclear leukocyte chemotaxis, in Leukocyte chemotaxis, Raven Press, New York, N.Y., 1978, p. 67.
Blood was sampled from decapitated animals that, after passage through heparinised gauze, was diluted 1/1 with dextran (1.5% in physiological solution) and allowed to sediment for 90 min. The granulocytes, extracted from whole blood by the usual methods; were brought to a concentration of 2×10^6 cells/mL in Hank's medium. They were then deposited on Millipore filters (3 μm) and placed in migration chambers. These chambers contained either Hank's medium for the evaluation of spontaneous migration, or casein (2 mL of a 5 mg/mL solution) for the evaluation of induced migration. After incubating the samples for 60 min at 37° C. with 5% CO2, the Millipore filters were removed, stained, and inserted between microscope slides. Microscopic observations were performed to determine the furthest distance (in μm) traversed in controls and experimental samples by 2 granulocytes within the rectangular viewing field. Granulocytic migration is expressed as the average value of 10 detailed observations on two filters prepared from each sample.

[2] = Body and spleen weight of rats in the chemotaxis test (Test 3); type: in vivo, rat; details: Fisher 344 rats; 25 mg/kg/d i.p. day -5 through day -1
Procedure: as §3

K. oxytoca = assay: Protective effect in experimentally-infected immunosuppressed mice (K. oxytoca); type: in vivo; details: for % Mortality, K. oxytoca: cyclophosphamide-immunodepressed CD1 mice, 25 mg/kg/d i.p. day -5 through day -1, challenge day 0
Description: as §1, §2

[3] = immunodepressed mice, 25 mg/kg/d i.p.

N=C(N)NCCC[C@H](NC(=O)OCCCCCn1cnc2c(=O)[nH]cnc21)C(=O)O [ST 789, N-alfa-5-(hypoxanthin-9-yl)-pentyloxycarbonylarginine, reference compound]
% Mortality, S. marcescens (S. marcescens): 50% | IL-2 in supernates from rat splenocytes (IL-2): 98.43 ± 4.47 U/mL | % Phagocytic cells [1]: 31.5 ± 0.5% | SRBC phagocytosed [1]: 152.5 ± 9.5 | SRBC per phagocyte [1]: 4.85 ± 0.25 | Chemotaxis (μm ± S.E.) induced (rat blood granulocytes): 30.4 ± 2.30 μm | Chemotaxis (μm ± S.E.) spontaneous (rat blood granulocytes): 10.01 ± 1.09 μm | Body wt [2]: 345.6 ± 8.84 g | Spleen wt [2]: 610.0 ± 22.00 mg | % Mortality, K. oxytoca (K. oxytoca): 10%

O=c1[nH]cnc2c1cnn2CCCCCO [ST 689, 1,5-dihydro-1-(5-hydroxypentyl)-4H-pyrazolo-[3,4-d]-pyrimidin-4-one]
% Mortality, S. marcescens (S. marcescens): 20% | Protective activity in Serratia infection, in words (S. marcescens; [3]): better than ST 789 | IL-2 in supernates from rat splenocytes (IL-2): 183.25 ± 22.55 U/mL | Production of IL-2 by splenocytes, in words (IL-2; compared to the same dosage of ST 789): increase in the production of IL-2 | Effect on the phagocytic capabilities of PECs, in words ([1]; 25 mg/kg daily i.p.): extremely positive effect | % Phagocytic cells [1]: 42.5 ± 0.5% | SRBC phagocytosed [1]: 229.5 ± 34.5 | SRBC per phagocyte [1]: 5.40 ± 0.90 | Increase of rat granulocyte chemotaxis, in words (rat blood granulocytes; 25 mg/kg/d i.p.): more active than ST 789 | Chemotaxis (μm ± S.E.) induced (rat blood granulocytes): 44.8 ± 1.40 μm | Chemotaxis (μm ± S.E.) spontaneous (rat blood granulocytes): 14.40 ± 0.40 μm | Body wt [2]: 358.0 ± 9.49 g | Spleen wt [2]: 591.4 ± 17.13 mg | % Mortality, K. oxytoca (K. oxytoca): 10% | Protective activity in Klebsiella infection, in words (K. oxytoca; [3]): equal to that of ST 789

Source: patent US5272151A, “Aminoacyl and oligopeptidyl derivatives of allopurinol exhibiting immunostimulatory activity, and pharmaceutical formulations containing these substances” (Sigma-Tau Industrie Farmaceutiche Riunite S.p.A., priority 1991, dated 1993)
